Measured values from EP0306160A2, “Molluscicides” (BRITISH TECHNOLOGY GROUP LIMITED, priority 1987, dated 1989).
Where two headings read alike, the source gives them in different places.

How the values were obtained:
Assay type in all cases: in vivo
[1] = test system: Deroceras reticulatum; assay: Bait bioassay with increasing concentrations in standard bait (Examples 19-35); conditions: for Kill: 4 days
Experimental: Test compounds were incorporated into a standard wheat-flour-based edible carrier containing 10% paraffin wax binder and 2.5% sucrose phagostimulant, in increasing concentrations 0, 1, 4, 7, 10, 13 and 16% a.i.
Groups of ten field-collected D. reticulatum in the weight range 400-600 mg were confined with 0.5 g DM test bait at each concentration for a period of 4 days under a regime of 12 h dark @ 5°C and 12 light @ 15°C. Weight of bait eaten and number of slugs killed were recorded. Each group of compounds was tested against a concurrently run Al(ac.ac)₃ standard bait.
In Examples 23 to 35, where six groups of ten slugs are offered bait containing 1,4,7,10,13 or 16% a.i., have been reduced to two values, (i), the total amount of a.i. ingested (mg) which gives an indication of the palatability of the compound, and (ii), the total number of slugs killed (x/60) which, with (i), gives an indication of its relative toxicity.

[2] = test system: slugs; assay: Field comparison of baits (grass/clover), Table VII; conditions: first 4 days of trial; bait 10 % ai, 2.5 % sucrose (PP pellets 6 % ai, Draza pellets 4 % ai)
Excerpt: In Table VII there is presented a comparison of the efficacy of present iron and aluminium chelates with metaldehyde and methiocarb under field conditions (grass/clover).

[3] = test system: grey field slugs, Deroceras reticulatum; assay: Stomach poison action, voluntary feeding (wheatmeal bait)
Experimental: (§1) All laboratory tests were made with field-collected grey field slugs, Deroceras reticulatum (Pulmonata, Limacidae) and also with Arion hortensis in the weight range 0.4-0.6g. They were held in polythene bowls on wet filter paper in a controlled environment cabinet cycling 12 hours light at 15°C and 12 hours dark at 5°C. Voluntary feeding tests were made under these conditions but all other laboratory bioassays were carried out at 10°C constant temperature with an overnight pre-treatment period also at 10°C.
Test chemicals were offered to slugs at a range of concentrations in a wheat-meal based formulation, groups of ten slugs being confined in 15 cm crystallising dishes containing only wet filter paper and a solid watch glass filled with 3 g (dry weight) of test bait for four 24-hour cycles […]

[4] = test system: grey field slugs, Deroceras reticulatum; assay: Contact with treated soil surface; conditions: mean of all tests
Experimental: as §1
Groups of ten slugs were held in plastic seed trays, 20 x 34 cm x 5 cm deep, filled to a depth of 1 cm with standard soil, a sandy clay loam from Rothamsted Farm, with a pH in water of 5.2, previously oven-dried, sieved (2 mm mesh), and rewetted to field capacity in the trays. Test chemicals were mixed with 5g dry soil, ground together and sprinkled on to the wet soil surface. Slugs were confined to the treated surface by a 16 v pulsed DC electric fence attached to the tray sides. Trays were covered to maintain a high Relative Humidity and food was provided. Dead slugs were removed daily and the final mortality count made after 10 days.

[5] = test system: grey field slugs, Deroceras reticulatum; assay: Contact with coated glass plate; conditions: for LC₅₀ On glass (50 min)., Mean: mean of all tests
Experimental: as §1
Groups of ten slugs were placed foot-down on sheets of glass, 10 cm x 10 cm, previously coated with an aqueous solution of suspension of test chemical and air dried to leave a deposit of known weight per unit area. Slugs were confined to a treated area for a period of 50 minutes at 10°C on plates with increasing surface loadings, then removed and held in wet filter paper-floored petri dishes with food. The number of dead slugs after seven days was recorded and the values used to calculate median lethal surface concentrations ('LC₅₀') for each compound by probit analysis.

[6] = test system: slugs; assay: Laboratory test, standard baits containing 1% metal ion, no alternative food (Example 17); conditions: 3 replicates of 10 slugs; standard bait containing 1% metal ion
Experimental: as §1
Laboratory tests where 3 replicates of 10 slugs were confined with standard baits containing 1% metal ion in different compounds, and no alternative food supplied, gave the following results: Aluminium sulphate (Al₂(SO₄)₃): 0/10, 0/10, 0/10 killed Aluminium acetylacetonate: 10/10, 10/10, 10/10 killed (Ex 17)

CCC(=O)C=C(C)[O][Al]([O]C(C)=CC(=O)CC)[O]C(C)=CC(=O)CC [Example 20, Tris (2,4-hexanedionato) Al III]
Kill ([1]; 1 % a.i. in standard bait): 1 x/10
Kill ([1]; 4 % a.i. in standard bait): 0 x/10
Kill ([1]; 7 % a.i. in standard bait): 4 x/10
Kill ([1]; 10 % a.i. in standard bait): 1 x/10
Kill ([1]; 13 % a.i. in standard bait): 5 x/10
Kill ([1]; 16 % a.i. in standard bait): 5 x/10

CNC(=O)Oc1cc(C)c(SC)c(C)c1 [Methiocarb]
Total Slugs 'Dead' or 'Immobilised' (Cumulative) Total D+I [2]: 557

CC1OC(C)OC(C)OC(C)O1 (centres unmarked) [Metaldehyde]
Total Slugs 'Dead' or 'Immobilised' (Cumulative) Total D+I [2]: 461

CCC(=O)C=C(CC)[O][Al]([O]C(=CC(=O)CC)CC)[O]C(=CC(=O)CC)CC [Example 21, Tris (3,5-heptanedionato) Al III]
Kill ([1]; 1 % a.i. in standard bait): 1 x/10
Kill ([1]; 4 % a.i. in standard bait): 3 x/10
Kill ([1]; 7 % a.i. in standard bait): 0 x/10
Kill ([1]; 10 % a.i. in standard bait): 1 x/10
Kill ([1]; 13 % a.i. in standard bait): 1 x/10
Kill ([1]; 16 % a.i. in standard bait): 2 x/10

Tris (1-dimethoxy-2, 4-pentanedionato) Al III [Example 29]
Slugs dead ([1]; total over six groups of ten slugs offered bait containing 1,4,7,10,13 or 16% a.i.): 14 x/10

CC(=O)C=C(C)[O][Al]([O]C(C)=CC(C)=O)[O]C(C)=CC(C)=O [Example 19, Tris (2,4-pentanedionato) Al III]
mortality at 0.01 % ([3]; Deroceras reticulatum, po, 168 h, 0.01 % Al in wheatmeal bait, read-out: Mortality after 7 days): 10%
mortality at 0.03 % ([3]; Deroceras reticulatum, po, 168 h, 0.03 % Al in wheatmeal bait, read-out: Mortality after 7 days): 10%
mortality at 0.1 % ([3]; Deroceras reticulatum, po, 168 h, 0.1 % Al in wheatmeal bait, read-out: Mortality after 7 days): 20%
mortality at 0.3 % ([3]; Deroceras reticulatum, po, 168 h, 0.3 % Al in wheatmeal bait, read-out: Mortality after 7 days): 40%
mortality at 1 % ([3]; Deroceras reticulatum, po, 168 h, 1.0 % Al in wheatmeal bait, read-out: Mortality after 7 days): 100%
mortality at 3 % ([3]; Deroceras reticulatum, po, 168 h, 3.0 % Al in wheatmeal bait, read-out: Mortality after 7 days): 100%
mortality at 0.1 % ([3]; Deroceras reticulatum, po, 216 h, 0.1 % Metal in wheatmeal bait (Table III), read-out: Mortality after 9 days): 40%
mortality at 0.5 % ([3]; Deroceras reticulatum, po, 216 h, 0.5 % Metal in wheatmeal bait (Table III), read-out: Mortality after 9 days): 80%
mortality at 1 % ([3]; Deroceras reticulatum, po, 216 h, 1.0 % Metal in wheatmeal bait (Table III), read-out: Mortality after 9 days): 80%
mortality at 5 % ([3]; Deroceras reticulatum, po, 216 h, 5.0 % Metal in wheatmeal bait (Table III), read-out: Mortality after 9 days): 80%
mortality at 10 % ([3]; Deroceras reticulatum, po, 216 h, 10.0 % Metal in wheatmeal bait (Table III), read-out: Mortality after 9 days): 80%
mortality at 1 % ([3]; Deroceras reticulatum, po, at 1 per cent Aluminium content, non-choice test (Table II), read-out: mortality): 100%
LC₅₀ On soil (10 days), Mean [4]: 34.1 µg metal/cm²
LC₅₀ On glass (50 min). ([5]; individual tests, 50 min contact at 10°C, dead after seven days, bracketed values estimated, listed as Al^III acetylacetonate): (10-100)(Example 1) µg metal cm²
LC₅₀ On glass (50 min)., Mean [5]: (< 100) µg metal cm²
killed [6]: 10/10
Kill ([1]; 1 % a.i. in standard bait): 0 x/10
Kill ([1]; 4 % a.i. in standard bait): 0 x/10
Kill ([1]; 7 % a.i. in standard bait): 6 x/10
Kill ([1]; 10 % a.i. in standard bait): 7 x/10
Kill ([1]; 13 % a.i. in standard bait): 8 x/10
Kill ([1]; 16 % a.i. in standard bait): 8 x/10

Aluminium sulphate [reference compound]
Mortality after 7 days ([3]; 0.01 % Al in wheatmeal bait): 1 x/10
Mortality after 7 days ([3]; 0.03 % Al in wheatmeal bait): 2 x/10
Mortality after 7 days ([3]; 0.1 % Al in wheatmeal bait): 3 x/10
Mortality after 7 days ([3]; 0.3 % Al in wheatmeal bait): 3 x/10
Mortality after 7 days ([3]; 1.0 % Al in wheatmeal bait): 5 x/10
Mortality after 7 days ([3]; 3.0 % Al in wheatmeal bait): 2 x/10
LC₅₀ On soil (10 days), Mean [4]: 207.4 µg metal/cm²
LC₅₀ values on glass [5]: around 20 µg metal cm⁻²
LC₅₀ On glass (50 min)., Mean [5]: 20.9 µg metal cm⁻²
killed [6]: 0/10
